Experimental findings from US5674878A, “Anellated dihydropyridines and the use thereof for the production of pharmaceutical preparations” (Boehringer Ingelheim KG, priority 1992, dated 1997) are described below.

One may read the % Inhibition as the change of the read-out against control, counted positive when it falls. Low readings indicate a response near the control, high ones a response far below the control.

One experiment concerns unselective cation channels (UCC). The experiment in a line: Thapsigargin (0.1 μM) stimulated Ca^2+ entry through unselective cation channels in fura-2-charged RBL-hm 1 cells. The format is cell-based, rat. The settings on record: RBL-hm 1 cells, Thapsigargin (0.1 μM) stimulation, 10 μM test substance (Table 21). An excerpt: As a measurement of the cell activation or as a measurement of the inhibition thereof by UCC blockers, the kinetics of the cytoplasmic calcium ion concentration in fura-2-charged cells is quantified fluorometrically using the method described by GRYNKIEWICZ et al. (1985).
Consequently the Ca^2+ -stores are rapidly depleted. As described by J. PUTNEY (Calcium, 11, 611-624, 1990) the depletion of these stores constitutes the physiological stimulation for opening up unselective cation channels in the cell membrane. The result of this is a massive influx of Na^+ and Ca^2+ into the cell. Because of these properties, Thapsigargin is suitable as an indirect stimulator for agonist- and IP3-independent opening up of the unselective cation channels.
The functional endothelin antagonism of the substances according to the invention is mediated through a blockade of the unselective cation channels. Consequently, detection of a functional Thapsigargin-antagonism on RBL-hm1 cells is also a suitable screening method for functional endothelin antagonists.
For screening purposes, fura-2-charged adhesive RBL-hm 1 cells are stimulated with 0.1 μM Thapsigargin in a Ca^2+ -free incubation medium. After 4 minutes, extracellular Ca^2+ is restored to a concentration of 1.5 mM and, using the fura-2-fluorescence, the excessive increase in the cytoplasmic Ca^2+ -concentration caused by a massive transmembranal Ca^2+ -entry through unselective cation channels is recorded.
This entry is to be inhibited solely by unselective cation channel blockers in a dosage-dependent manner. Neither conventional calcium antagonists nor specific blockers of agonists which stimulate the IP3 -turnover are able to inhibit the transmembranal Ca^2+ -entry triggered indirectly by Thapsigargin. The compounds of the present invention are distinguished by their inhibition of UCC.
The fluorometric calcium measurement in the cytoplasm of individual adhering RBL-hm1 cells is carried out analogously to the method described by KUDO and OGURA (1986) for neuronal cells. An AXIOVERT 35 fluorescence microscope made by ZEISS is used in conjunction with an imaging system made by HAMAMATSU, consisting of the ICMS-image processing system, residual light camera with control unit and image intensifier DVS 3000.
The kinetics of the cytoplasmic Ca^2+ -concentration is recorded continuously as a concentration/time curve after the cell activation stimulated by Thapsigargin (0.1 μM). The curves of two activated cell cultures are compared in the presence and absence of 10 μM test substance. The area under these curves (area under the curve=AUC) is integrated and recorded as a measurement of cell activation. The inhibitory potency of the UCC-blockers tested is determined using the following equation: [formula] %H=the percentage inhibition of the calcium entry through unselective cation channels which is stimulated and inhibited by 10 μM of test substance.
AUCinh =area under the curve recorded in the presence of the stimulant plus 10 μM inhibitory test substance.
AUCcontrol =area under the curve which is recorded only after the addition of the stimulant.
The percentage inhibition of UCC after Thapsigargin stimulation (0.1 μM Thapsigargin) in RBL-hm 1 cells is given. The uniform concentration of the test substances is 10^-5 mol).
For the molecule `CCOc1ccccc1CCNC(=O)C(=C1NCCc2cc(OC)c(OC)cc21)c1ccccc1` (single isomer, unassigned) [K], the “% Inhibition” value came to 76.31%. The same measure, in the same setting: the figure for `COc1cc2c(cc1OC)C(=C(C(=O)NCCc1c(OC)cccc1OC)c1ccccc1)NCC2` (single isomer, unassigned) [L] is 53.14%; for `COc1cc2c(cc1OC)C(C(C(=O)N(CCc1ccc(OC)c(OC)c1OC)CCc1ccc(OC)c(OC)c1OC)c1ccccc1)=NCC2` (stereo not shown) [38a (oxalate)] it is 52.64%. On the same count and under the same terms, the figure for `COc1cc2c(cc1OC)C(C(C(=O)N1CCCC1)c1ccccc1)=NCC2` (stereo not shown) [41 (Structure I)] is 57.22%; for `COc1cc2c(cc1OC)C(C(C(=O)NCCc1ccc(OC)c(OC)c1OC)c1ccccc1)=NCC2` (stereo not shown) [B] it is 72.35%; for `COc1cc2c(cc1OC)C(C(C(=O)NCC(c1ccccc1)c1ccccc1)c1ccccc1)=NCC2` (stereo not shown) [C] it is 63.45%.

As to `COc1cc2c(cc1OC)C(C(C(=O)NCCc1cccc(C(F)(F)F)c1)c1ccccc1)=NCC2` (stereo not shown) [E], the “% Inhibition” value is 81.89%. On the same count and under the same terms, the figure for `COc1cc2c(cc1OC)C(C(C(=O)NCc1c(F)cccc1OC)c1ccccc1)=NCC2` (stereo not shown) [F] is 48.01%; for `COc1cc2c(cc1OC)C(=C(C(=O)NCCc1cccc(OC)c1OC)c1ccccc1)NCC2` [G] it is 57.52%. Still for that read-out and setting: the figure for `COc1cc2c(cc1OC)C(=C(C(=O)NC(C)COc1ccccc1)c1ccccc1)NCC2` (stereo not shown) [H] is 57.06%; for `COc1cc2c(cc1OC)C(C(C(=O)NCCc1ccsc1)c1ccccc1)=NCC2` (stereo not shown) [O] it is 63.32%. Still for that read-out and setting: the value for `COc1cc2c(cc1OC)C(=C(C(=O)NC(Cc1ccccc1)c1ccccc1)c1ccccc1)NCC2` (stereo not shown) [Q] was 64.28%.

For `COCCNC(=O)C(=C1NCCc2cc(OC)c(OC)cc21)c1ccccc1` [compound 17], the “% Inhibition” value came to 52.53%. As to `COCCCNC(=O)C(=C1NCCc2cc(OC)c(OC)cc21)c1ccccc1` [compound 18], the “% Inhibition” value is given as 57.53%. Regarding `COc1cc2c(cc1OC)C(=C(C(=O)NCCCN(C)C)c1ccccc1)NCC2` [compound 20], the “% Inhibition” value turned out to be 57.38%. On to `COc1cc2c(cc1OC)C(C(C(=O)Nc1cccnc1)c1ccccc1)=NCC2` (stereo not shown) [compound 33], for which the “% Inhibition” value is reported as 60.55%.

As for `COc1cc2c(cc1OC)C(C(C(=O)N(C)C)c1ccccc1)=NCC2` (stereo not shown) [compound 36], the “% Inhibition” value came out at 52.19%. Still for that read-out and setting: the figure for `CCN(CC)C(=O)C(C1=NCCc2cc(OC)c(OC)cc21)c1ccccc1` (stereo not shown) [compound 37] is 75.77%.

For the molecule `COc1cc2c(cc1OC)C(C(C(=O)N1CCOCC1)c1ccccc1)=NCC2` (stereo not shown) [compound 39], the “% Inhibition” value is 48.62%. The same measure, in the same setting: the value for `COc1cc2c(cc1OC)C(C(C(=O)N1CCSCC1)c1ccccc1)=NCC2` (stereo not shown) [compound 40] was 64.99%; that for `COc1cc2c(cc1OC)C(=C(C(=O)N1CCN(Cc3ccccc3)CC1)c1ccccc1)NCC2` [compound 42] was 84.83%.

Regarding `COc1cc2c(cc1OC)C(C(C(=O)N1CCN(C)CC1)c1ccccc1)=NCC2` (stereo not shown) [compound 43], the “% Inhibition” value came out at 48.69%.

Consider `O=C(NCCc1ccc2c(c1)OCO2)C(=C1NCCc2cc3c(cc21)OCO3)c1ccccc1` [compound 46], for which the “% Inhibition” value is 68.06%.

As for `O=C(NCCN1CCOCC1)C(=C1NCCc2cc3c(cc21)OCO3)c1ccccc1` [compound 48], the “% Inhibition” value amounted to 61.34%. Still for that read-out and setting: the value for `COc1ccc(CCNC(=O)C(=C2NCCc3c2[nH]c2ccccc32)c2ccccc2)cc1OC` [compound 83] was 66.76%; that for `O=C(NCCN1CCOCC1)C(=C1NCCc2c1[nH]c1ccccc21)c1ccccc1` [compound 89] was 53.38%; that for `COc1cc2c(cc1OC)C(C(C(=O)NCCC(c1ccccc1)c1ccccc1)c1ccccc1)=NCC2` (stereo not shown) [compound 101] was 59.62%. For `COc1cc2c(cc1OC)C(C(C(=O)NCCc1ccccc1C)c1ccccc1)=NCC2` (stereo not shown) [compound 102], the “% Inhibition” value was found to be 80.77%. Same read-out and setting: the figure for `COc1cc(CCNC(=O)C(C2=NCCc3cc(OC)c(OC)cc32)c2ccccc2)cc(OC)c1` (stereo not shown) [compound 104] is 54.67%; for `COc1cccc(CCNC(=O)C(C2=NCCc3cc(OC)c(OC)cc32)c2ccccc2)c1` (stereo not shown) [compound 105] it is 45.09%; for `COc1cc2c(cc1OC)C(C(C(=O)NCc1cc(C)ccc1C)c1ccccc1)=NCC2` (stereo not shown) [compound 106] it is 65.69%. Same read-out and setting: the value for `COc1cc2c(cc1OC)C(C(C(=O)NCCCc1ccc(OC)c(OC)c1OC)c1ccccc1)=NCC2` (stereo not shown) [compound 108] was 44.45%; that for `COc1cc2c(cc1OC)C(=C(C(=O)NCCc1ccc(OC)c(C)c1C)c1ccccc1)NCC2` [compound 109] was 74.18%.

The experiment is the same for the next values; noted with them: Table 17; 10 μM test substance.
In the case of `COc1cccc(OCCN2CCN(C(=O)C(C3=NCCc4cc(OC)c(OC)cc43)c3ccccc3)CC2)c1` (stereo not shown), the “percent inhibition of Ca2+ entry” value is 41.06%. For `COc1cc2c(cc1OC)C(C(C(=O)N1CCN(c3nc(N)c4cc(OC)c(OC)cc4n3)CC1)c1ccccc1)=NCC2` (stereo not shown), the “percent inhibition of Ca2+ entry” value is recorded as 7.77%. Still for that read-out and setting: the value for `COc1cccc(OCCNC(=O)C(C2=NCCc3cc(OC)c(OC)cc32)c2ccccc2)c1` (stereo not shown) was 45.26%. On the same count and under the same terms, the value for `COc1ccc2c(c1)CCN(C(=O)C(C1=NCCc3cc(OC)c(OC)cc31)c1ccccc1)C2` (stereo not shown) was 33.06%. In the case of `COc1cc2c(cc1OC)C(C(C(=O)NC(C)(C)C)c1ccccc1)=NCC2` (stereo not shown), the “percent inhibition of Ca2+ entry” value turned out to be 81.60%. The same measure, in the same setting: the value for `COc1cc2c(cc1OC)C(C(C(=O)NCC(C)(C)C)c1ccccc1)=NCC2` (stereo not shown) was 81.51%; that for `COc1cc2c(cc1OC)C(C(C(=O)NCC13CC4CC(CC(C4)C1)C3)c1ccccc1)=NCC2` (stereo not shown) [HNCH2-1-Adam.] was 65.1%.

Still in this experiment, the particulars now being: Table 18; 10 μM test substance.
`COc1cc2c(cc1OC)C(C(C(=O)N(CCc1ccc(OC)c(OC)c1OC)CCc1ccc(OC)c(OC)c1OC)c1ccccc1OC)=NCC2` (stereo not shown): the “percent inhibition of Ca2+ entry” value was found to be 41.8%. The same measure, in the same setting: the figure for `COc1cccc(C(C(=O)N(CCc2ccc(OC)c(OC)c2OC)CCc2ccc(OC)c(OC)c2OC)C2=NCCc3cc(OC)c(OC)cc32)c1` (stereo not shown) is 24.3%; for `COc1ccc(C(C(=O)N(CCc2ccc(OC)c(OC)c2OC)CCc2ccc(OC)c(OC)c2OC)C2=NCCc3cc(OC)c(OC)cc32)cc1` (stereo not shown) it is 73.7%; for `COc1ccc(C(C(=O)N(CCc2ccc(OC)c(OC)c2OC)CCc2ccc(OC)c(OC)c2OC)C2=NCCc3cc(OC)c(OC)cc32)cc1OC` (stereo not shown) it is 53.1%. The same measure, in the same setting: the figure for `COc1cc2c(cc1OC)C(C(C(=O)N(CCc1ccc(OC)c(OC)c1OC)CCc1ccc(OC)c(OC)c1OC)c1ccccc1C)=NCC2` (stereo not shown) is 68.22%. Regarding `COc1cc2c(cc1OC)C(C(C(=O)N(CCc1ccc(OC)c(OC)c1OC)CCc1ccc(OC)c(OC)c1OC)c1ccc(Cl)cc1Cl)=NCC2` (stereo not shown), the “percent inhibition of Ca2+ entry” value is listed as 30.79%.

Turning to `COc1cc2c(cc1OC)C(C(C(=O)N(CCc1ccc(OC)c(OC)c1OC)CCc1ccc(OC)c(OC)c1OC)c1ccc(F)cc1)=NCC2` (stereo not shown), the “percent inhibition of Ca2+ entry” value was 54.30%. Consider `COc1cc2c(cc1OC)C(C(C(=O)N(CCc1ccc(OC)c(OC)c1OC)CCc1ccc(OC)c(OC)c1OC)c1ccc(N=[N+]=[N-])cc1)=NCC2` (stereo not shown), for which the “percent inhibition of Ca2+ entry” value turned out to be 61.3%. Still for that read-out and setting: the figure for `COc1cc2c(cc1OC)C(C(C(=O)N(CCc1ccc(OC)c(OC)c1OC)CCc1ccc(OC)c(OC)c1OC)c1ccc(N=[N+]=[N-])c(I)c1)=NCC2` (stereo not shown) is 5.81%; for `COc1cc2c(cc1OC)C(C(CC1CCC1)C(=O)N(CCc1ccc(OC)c(OC)c1OC)CCc1ccc(OC)c(OC)c1OC)=NCC2` (stereo not shown) it is 56.0%.

The experiment is the same for the next values; noted with them: Table 19; 10 μM test substance.
Take `COc1ccccc1CCNC(=O)C(C1=NCCc2cc(OC)c(OC)cc21)c1ccc(N=[N+]=[N-])cc1` (stereo not shown): the “percent inhibition of Ca2+ entry” value turned out to be 50.58%.

Still in this experiment, the particulars now being: Table 20; 10 μM test substance.
Regarding `COc1cc2c(cc1OCc1ccccc1)CCN=C2C(C(=O)NCCC(C)(C)C)c1ccccc1` (stereo not shown) [NHCH2 CH2C(CH3)3], the “percent inhibition of Ca2+ entry” value is reported as 61.85%.
